From paper PMC10126245 (Frontiers in Cellular and Infection Microbiology, 2023)
Values after ≈ are worked out from the molar mass of the structure shown. Values joined by “and” are separate entries in the source; they are usually repeats but may differ in a detail not shown here. Equal values may be shown once.

Assays:
[1] = tested on: CT-induced cAMP levels in CHO cell line; type: cell-based
[2] = target: CT binding to GM1 receptor (Vibrio cholerae serotype O1, UniProt P01556)
CHO cell line [3] = conditions: Chinese hamster
CHO cell line [4] = assay: cells; conditions: Cricetulus griseus, 24 h
in vitro = conditions: Chinese hamster
[5] = tested on: CFCF-induced fluid accumulation in ligated-ileal loops; set-up: species or system Swiss albino mice; conditions: mouse, in vivo
[6] = tested on: CT-induced cell elongation in CHO cell line; type: cell-based
[7] = tested on: CFCF induced histopathological changes in ileal loops; set-up: species or system Swiss albino mice; conditions: mouse, in vivo
[8] = tested on: CFCF-induced cAMP levels in ligated-ileal loops; set-up: species or system Swiss albino mice; conditions: mouse, in vivo
[9] = tested on: FITC-CTB binding to Vero cells; conditions: 10µg/ml; cited from earlier work
CT-induced cAMP = conditions: 10µg/mL; cited from earlier work
CT binding to GM1 = conditions: 50mM; cited from earlier work

Chain of CT binding to GM1 receptor (P01556 22-124 limits assumed): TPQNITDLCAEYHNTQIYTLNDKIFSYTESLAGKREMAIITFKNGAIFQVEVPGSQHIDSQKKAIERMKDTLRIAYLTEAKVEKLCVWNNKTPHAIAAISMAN

C[C@@H]1O[C@@H](OC[C@H]2O[C@@H](Oc3c(-c4ccc(O)c(O)c4)oc4cc(O)cc(O)c4c3=O)[C@H](O)[C@@H](O)[C@@H]2O)[C@H](O)[C@H](O)[C@H]1O [Rutin]
Bound percent (B%) of cAMP [1]: 53% and 44% | Binding inhibition percentage (BI%) [2]: 9% and 2% | NC1 (non-cytotoxic concentration) (CHO cell line [3]): 70 µg/mL | NC2 (non-cytotoxic concentration) (CHO cell line [3]): 35 µg/mL | viability (CHO cell line [3]): 97.6% | IC50 (CHO cell line [4]): 287 ± 6.9 µg/mL (≈ 471 µM) | viability (in vitro): 92.4%

O=c1oc2c(O)c(O)cc3c(=O)oc4c(O)c(O)cc1c4c23 [Ellagic acid]
Mean W/L ratio [5]: 0.091 and 0.094 | Mean weight/length (W/L) ratio of ligated-ileal loops [5]: 0.091 g/cm and 0.094 g/cm | Protection against CT-induced cell elongation [6]: greater protective activities | Protection against CFCF induced histopathological changes (inflammation, edema) [7]: substantial protective activity | Bound percent (B%) of cAMP [1]: 82% and 81% | Binding inhibition of CT to GM1 [2]: > 50% | Binding inhibition percentage (BI%) [2]: 97% | NC1 (non-cytotoxic concentration) (CHO cell line [3]): 30 µg/mL | NC2 (non-cytotoxic concentration) (CHO cell line [3]): 15 µg/mL | viability (CHO cell line [3]): 97.5% | IC50 (CHO cell line [4]): 116 ± 9.6 µg/mL (≈ 382 µM) | cAMP levels in ligated-ileal tissues [8]: 0.62% and 1.31% | viability (in vitro): 93.2%

C[C@@H]1O[C@@H](Oc2c(-c3ccc(O)c(O)c3)oc3cc(O)cc(O)c3c2=O)[C@H](O)[C@H](O)[C@H]1O [Quercetrin, reference compound]
Inhibition of binding of FITC-CTB to Vero cells [9]: 20% | Decrease in cAMP compared to CT control (CT-induced cAMP): 59% | Bound percent (B%) of cAMP [1]: 66% and 47% | NC1 (non-cytotoxic concentration) (CHO cell line [3]): 60 µg/mL | NC2 (non-cytotoxic concentration) (CHO cell line [3]): 30 µg/mL | viability (CHO cell line [3]): 96.3% | IC50 (CHO cell line [4]): 234 ± 3.7 µg/mL (≈ 521 µM) | viability (in vitro): 91%

O=C(O)c1cc(O)c(O)c(O)c1 [Gallic acid, reference compound]
Mean W/L ratio [5]: 0.222 and 0.188 | Mean weight/length (W/L) ratio of ligated-ileal loops [5]: 0.188 g/cm | Inhibition of binding of FITC-CTB to Vero cells [9]: 23% | Protection against CFCF induced histopathological changes (inflammation, edema) [7]: indistinct amelioration | Decrease in cAMP compared to CT control (CT-induced cAMP): 76% | Bound percent (B%) of cAMP [1]: 80% and 60% | Binding inhibition of CT to GM1 (CT binding to GM1): 40% | NC1 (non-cytotoxic concentration) (CHO cell line [3]): 25 µg/mL | NC2 (non-cytotoxic concentration) (CHO cell line [3]): 12.5 µg/mL | viability (CHO cell line [3]): 97.9% | IC50 (CHO cell line [4]): 103 ± 1.1 µg/mL (≈ 604 µM) | cAMP levels in ligated-ileal tissues [8]: 1.79% and 3.39% | viability (in vitro): 93.5%

O=C(/C=C/c1ccc(O)c(O)c1)O[C@@H]1C[C@](O)(C(=O)O)C[C@@H](O)[C@H]1O [Chlorogenic acid]
Mean W/L ratio [5]: 0.132 and 0.176 | Mean weight/length (W/L) ratio of ligated-ileal loops [5]: 0.132 g/cm and 0.176 g/cm | Protection against CT-induced cell elongation [6]: greater protective activities | Protection against CFCF induced histopathological changes (inflammation, edema) [7]: substantial protective activity | Bound percent (B%) of cAMP [1]: 81% and 78% | Binding inhibition of CT to GM1 [2]: > 50% | Binding inhibition percentage (BI%) [2]: 92% and 81% | NC1 (non-cytotoxic concentration) (CHO cell line [3]): 100 µg/mL | NC2 (non-cytotoxic concentration) (CHO cell line [3]): 50 µg/mL | viability (CHO cell line [3]): 97.2% | IC50 (CHO cell line [4]): 398 ± 5.4 µg/mL (≈ 1120 µM) | cAMP levels in ligated-ileal tissues [8]: 1.18% and 1.89% | viability (in vitro): 90.5%

O=C(CCc1ccc(O)cc1)c1c(O)cc(O)cc1O[C@@H]1O[C@H](CO)[C@@H](O)[C@H](O)[C@H]1O [Phloridzin]
Bound percent (B%) of cAMP [1]: 71% and 50% | Binding inhibition of CT to GM1 [2]: > 50% | NC1 (non-cytotoxic concentration) (CHO cell line [3]): 75 µg/mL | NC2 (non-cytotoxic concentration) (CHO cell line [3]): 37.5 µg/mL | viability (CHO cell line [3]): 97.6% | IC50 (CHO cell line [4]): 298 ± 3.9 µg/mL (≈ 683 µM) | viability (in vitro): 94.8%
